US9359352B2, “Substituted benzimidazoles as PI3 kinase inhibitors” (Intellikine LLC, priority 2010, dated 2016)

Legend:
Assay type in all cases: biochemical
[1] = target: T1, mTOR C (Homo sapiens, UniProt P42345); test: mTOR kinase inhibition assay (mTORC IC50); conditions: in vitro
T1 construct: purchased Invitrogen
Description: The cross-activity or lack thereof of one or more compounds of the present invention against mTor can be measured according to any procedures known in the art or methods disclosed below. The compounds described herein can be tested against recombinant mTOR (Invitrogen) in an assay containing 50 mM HEPES, pH 7.5, 1 mM EGTA, 10 mM MgCl2, 2.5 mM, 0.01% Tween, 10 μM ATP (2.5 μCi of […]), and 3 μg/mL BSA. Rat recombinant PHAS-1/4EBP1 (Calbiochem; 2 mg/mL) is used as a substrate. Reactions are terminated by spotting onto nitrocellulose, which is washed with 1M NaCl/1% phosphoric acid (approximately 6 times, 5-10 minutes each). Sheets are dried and the transferred radioactivity quantitated by phosphorimaging.
Other kits or systems for assaying mTOR activity are commercially available. For instance, one can use Invitrogen's LanthaScreen™ Kinase assay to test the inhibitors of mTOR disclosed herein. This assay is a time resolved FRET platform that measures the phosphorylation of GFP labeled 4EBP1 by mTOR kinase. The kinase reaction is performed in a white 384 well microtitre plate. The total reaction volume is 20 ul per well and the reaction buffer composition is 50 mM HEPES pH7.5, 0.01% Polysorbate 20, 1 mM EGTA, 10 mM MnCl2, and 2 mM DTT. In the first step, each well receives 2 ul of test compound in 20% dimethylsulphoxide resulting in a 2% DMSO final concentration. Next, 8 ul of mTOR diluted in reaction buffer is added per well for a 60 ng/ml final concentration. To start the reaction, 10 ul of an ATP/GFP-4EBP1 mixture (diluted in reaction buffer) is added per well for a final concentration of 10 μM ATP and 0.5 μM GFP-4EBP1. The plate is sealed and incubated for 1 hour at room temperature. The reaction is stopped by adding 10 ul per well of a Tb-anti-pT46 4EBP1 antibody/EDTA mixture (diluted in TR-FRET buffer) for a final concentration of 1.3 nM antibody and 6.7 mM EDTA. The plate is sealed, incubated for 1 hour at room temperature, and then read on a plate reader set up for LanthaScreen™ TR-FRET. Data is analyzed and IC50s are generated using GraphPad Prism 5.

[2] = target: T2, PI3K α (Homo sapiens, UniProt P42336); test: PI 3-Kinase HTRF inhibition assay, PI3K α; conditions: in vitro; read-out: PI3K α IC50
T2 construct: purchased Upstate
Description: (§1) Commercial kits or systems for assaying PI3-K activities are available. The commercially available kits or systems can be used to screen for inhibitors and/or agonists of PI3-Ks including but not limited to PI 3-Kinase α, β, δ, and γ. An exemplary system is PI 3-Kinase (human) HTRF™ Assay from Upstate. […] Briefly, the assay is a time resolved FRET assay that indirectly measures PIP3 product formed by the activity of a PI3-K. The kinase reaction is performed in a microtitre plate (e.g., a 384 well microtitre plate). The total reaction volume is approximately 20 ul per well. In the first step, each well receives 2 ul of test compound in 20% dimethylsulphoxide resulting in a 2% DMSO final concentration. Next, approximately 14.5 ul of a kinase/PIP2 mixture (diluted in 1× reaction buffer) is added per well for a final concentration of 0.25-0.3 ug/ml kinase and 10 μM PIP2. The plate is scaled and incubated for 15 minutes at room temperature. To start the reaction, 3.5 ul of ATP (diluted in 1× reaction buffer) is added per well for a final concentration of 10 μM ATP. The plate is sealed and incubated for 1 hour at room temperature. The reaction is stopped by adding 5 ul of Stop Solution per well and then 5 ul of Detection Mix is added per well. The plate is sealed, incubated for 1 hour at room temperature, and then read on an appropriate plate reader. Data is analyzed and IC50s are generated using GraphPad Prism 5. For PI3K α, β, δ, and γ, the nM concentration of inhibitor to reach IC50 is provided. […] Similar assays, and others known in the art, can be used to measure the percent inhibition of other kinases, including but not limited to PI3K class II kinases, phosphoinositide 4 kinases (PI4K), and phosphoinositide 5 kinases (PI5K).

[3] = target: T3, PI3K β (Homo sapiens, UniProt P42338); test: PI 3-Kinase HTRF inhibition assay, PI3K β; conditions: in vitro
T3 construct: purchased Upstate
Description: as §1

[4] = target: T4, PI3K δ (Homo sapiens, UniProt O00329); test: PI 3-Kinase HTRF inhibition assay, PI3K δ; conditions: in vitro; read-out: PI3K δ IC50
T4 construct: purchased Upstate
Description: as §1

[5] = target: T5, PI3K γ (Homo sapiens, UniProt P48736); test: PI 3-Kinase HTRF inhibition assay, PI3K γ; conditions: in vitro
T5 construct: purchased Upstate
T5 sequence (P48736 whole entry): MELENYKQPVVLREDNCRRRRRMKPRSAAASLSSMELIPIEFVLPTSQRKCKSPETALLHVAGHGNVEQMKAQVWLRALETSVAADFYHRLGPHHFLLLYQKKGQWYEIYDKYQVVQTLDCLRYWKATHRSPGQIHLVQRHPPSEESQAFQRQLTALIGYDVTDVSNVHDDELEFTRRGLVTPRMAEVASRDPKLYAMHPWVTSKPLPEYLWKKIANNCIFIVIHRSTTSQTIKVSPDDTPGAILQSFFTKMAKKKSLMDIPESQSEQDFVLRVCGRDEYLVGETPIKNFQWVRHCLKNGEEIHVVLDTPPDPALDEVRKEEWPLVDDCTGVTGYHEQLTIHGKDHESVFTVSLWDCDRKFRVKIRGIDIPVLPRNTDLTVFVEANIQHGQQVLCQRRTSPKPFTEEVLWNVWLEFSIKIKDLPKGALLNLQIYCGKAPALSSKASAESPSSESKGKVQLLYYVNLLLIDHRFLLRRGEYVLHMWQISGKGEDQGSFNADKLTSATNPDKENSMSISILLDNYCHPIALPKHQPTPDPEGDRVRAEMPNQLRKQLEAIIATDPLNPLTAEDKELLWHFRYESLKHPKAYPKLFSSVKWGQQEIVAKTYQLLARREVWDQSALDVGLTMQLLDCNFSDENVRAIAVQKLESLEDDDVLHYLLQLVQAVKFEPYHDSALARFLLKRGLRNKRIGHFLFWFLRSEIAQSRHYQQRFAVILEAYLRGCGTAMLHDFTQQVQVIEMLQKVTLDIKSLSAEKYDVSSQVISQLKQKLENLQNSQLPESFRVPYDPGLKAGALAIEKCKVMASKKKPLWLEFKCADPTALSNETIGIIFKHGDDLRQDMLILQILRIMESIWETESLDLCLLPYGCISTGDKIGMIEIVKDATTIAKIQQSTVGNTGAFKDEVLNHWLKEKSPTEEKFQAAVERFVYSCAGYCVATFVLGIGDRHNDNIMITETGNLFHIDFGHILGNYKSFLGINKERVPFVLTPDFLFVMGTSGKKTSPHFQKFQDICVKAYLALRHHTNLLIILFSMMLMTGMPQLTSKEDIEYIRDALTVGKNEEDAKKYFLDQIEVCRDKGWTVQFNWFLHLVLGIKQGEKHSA

T4 sequence (O00329 whole entry): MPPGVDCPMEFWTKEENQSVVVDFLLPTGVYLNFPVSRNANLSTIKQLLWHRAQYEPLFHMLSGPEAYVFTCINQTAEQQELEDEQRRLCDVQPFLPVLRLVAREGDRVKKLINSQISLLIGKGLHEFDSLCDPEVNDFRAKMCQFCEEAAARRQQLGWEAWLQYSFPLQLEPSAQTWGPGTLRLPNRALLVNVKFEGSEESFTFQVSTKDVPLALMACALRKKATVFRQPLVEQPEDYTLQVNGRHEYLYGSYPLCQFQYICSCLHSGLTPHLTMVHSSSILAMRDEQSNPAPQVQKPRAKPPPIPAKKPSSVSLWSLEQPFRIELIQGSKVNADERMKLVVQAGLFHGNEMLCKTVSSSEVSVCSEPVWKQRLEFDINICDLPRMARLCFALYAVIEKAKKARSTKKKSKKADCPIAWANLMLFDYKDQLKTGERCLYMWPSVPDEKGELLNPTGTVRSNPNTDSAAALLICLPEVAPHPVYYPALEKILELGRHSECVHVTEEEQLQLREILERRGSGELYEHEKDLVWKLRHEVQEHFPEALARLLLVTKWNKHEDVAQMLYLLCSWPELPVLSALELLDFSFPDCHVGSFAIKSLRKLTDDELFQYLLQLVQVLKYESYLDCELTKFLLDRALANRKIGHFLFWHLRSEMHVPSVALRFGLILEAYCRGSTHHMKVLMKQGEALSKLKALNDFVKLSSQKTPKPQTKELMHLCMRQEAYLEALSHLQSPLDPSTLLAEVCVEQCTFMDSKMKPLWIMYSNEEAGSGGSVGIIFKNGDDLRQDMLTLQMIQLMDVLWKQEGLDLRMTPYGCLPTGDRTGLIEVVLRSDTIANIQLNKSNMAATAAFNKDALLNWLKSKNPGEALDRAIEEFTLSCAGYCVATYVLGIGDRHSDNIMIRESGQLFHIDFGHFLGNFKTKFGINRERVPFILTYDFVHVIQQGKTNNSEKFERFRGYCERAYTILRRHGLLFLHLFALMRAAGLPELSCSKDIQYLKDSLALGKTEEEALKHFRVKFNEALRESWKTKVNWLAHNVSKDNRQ
T4 sequence (P27986 whole entry partner): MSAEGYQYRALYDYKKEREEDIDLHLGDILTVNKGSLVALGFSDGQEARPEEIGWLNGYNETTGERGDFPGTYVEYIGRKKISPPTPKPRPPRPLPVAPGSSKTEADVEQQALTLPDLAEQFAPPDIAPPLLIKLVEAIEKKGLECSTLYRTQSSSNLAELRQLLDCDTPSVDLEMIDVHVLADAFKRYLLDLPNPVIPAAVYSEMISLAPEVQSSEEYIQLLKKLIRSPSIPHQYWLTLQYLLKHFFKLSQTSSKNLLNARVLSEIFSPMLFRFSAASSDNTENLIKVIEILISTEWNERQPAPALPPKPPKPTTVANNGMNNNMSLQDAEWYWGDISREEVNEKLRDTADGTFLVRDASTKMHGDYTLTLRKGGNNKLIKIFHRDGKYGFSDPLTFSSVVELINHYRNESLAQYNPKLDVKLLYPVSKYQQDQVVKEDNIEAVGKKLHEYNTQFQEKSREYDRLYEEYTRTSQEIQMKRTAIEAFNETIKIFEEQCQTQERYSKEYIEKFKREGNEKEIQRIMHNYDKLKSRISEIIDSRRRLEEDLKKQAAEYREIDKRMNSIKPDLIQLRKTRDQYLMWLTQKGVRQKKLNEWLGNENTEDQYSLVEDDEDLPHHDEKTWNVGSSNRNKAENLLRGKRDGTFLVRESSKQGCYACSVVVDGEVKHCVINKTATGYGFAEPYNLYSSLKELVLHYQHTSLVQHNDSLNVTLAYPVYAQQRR
T3 sequence (P42338 whole entry): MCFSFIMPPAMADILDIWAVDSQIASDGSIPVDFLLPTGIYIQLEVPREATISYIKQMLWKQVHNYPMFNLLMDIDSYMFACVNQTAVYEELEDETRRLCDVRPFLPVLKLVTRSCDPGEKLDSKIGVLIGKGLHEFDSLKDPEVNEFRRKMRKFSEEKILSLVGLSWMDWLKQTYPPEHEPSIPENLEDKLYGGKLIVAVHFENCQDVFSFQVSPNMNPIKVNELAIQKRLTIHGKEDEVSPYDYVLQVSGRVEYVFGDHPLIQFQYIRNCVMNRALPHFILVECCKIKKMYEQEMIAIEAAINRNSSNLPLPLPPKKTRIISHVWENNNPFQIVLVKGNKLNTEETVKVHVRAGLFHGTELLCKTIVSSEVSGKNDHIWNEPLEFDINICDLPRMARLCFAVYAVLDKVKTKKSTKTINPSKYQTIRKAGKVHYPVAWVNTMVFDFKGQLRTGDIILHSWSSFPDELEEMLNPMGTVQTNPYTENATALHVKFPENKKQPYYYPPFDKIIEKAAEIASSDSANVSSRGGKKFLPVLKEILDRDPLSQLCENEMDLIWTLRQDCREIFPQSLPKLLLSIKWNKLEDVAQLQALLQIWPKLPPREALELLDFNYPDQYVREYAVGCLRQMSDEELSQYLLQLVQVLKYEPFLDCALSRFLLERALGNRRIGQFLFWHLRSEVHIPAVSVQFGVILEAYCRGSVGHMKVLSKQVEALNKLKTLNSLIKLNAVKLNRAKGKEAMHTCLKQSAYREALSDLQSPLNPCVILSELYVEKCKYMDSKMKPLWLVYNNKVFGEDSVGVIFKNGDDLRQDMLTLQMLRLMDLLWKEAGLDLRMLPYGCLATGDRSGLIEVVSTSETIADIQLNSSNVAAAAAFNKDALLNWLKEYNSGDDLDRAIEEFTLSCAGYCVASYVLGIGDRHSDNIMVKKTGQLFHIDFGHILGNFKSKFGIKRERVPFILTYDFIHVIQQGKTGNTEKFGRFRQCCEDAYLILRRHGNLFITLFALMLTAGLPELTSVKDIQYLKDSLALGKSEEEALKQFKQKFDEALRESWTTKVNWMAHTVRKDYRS
T3 sequence (P27986 whole entry partner): as the sequence (P27986 whole entry partner) above
T2 sequence (P42336 whole entry): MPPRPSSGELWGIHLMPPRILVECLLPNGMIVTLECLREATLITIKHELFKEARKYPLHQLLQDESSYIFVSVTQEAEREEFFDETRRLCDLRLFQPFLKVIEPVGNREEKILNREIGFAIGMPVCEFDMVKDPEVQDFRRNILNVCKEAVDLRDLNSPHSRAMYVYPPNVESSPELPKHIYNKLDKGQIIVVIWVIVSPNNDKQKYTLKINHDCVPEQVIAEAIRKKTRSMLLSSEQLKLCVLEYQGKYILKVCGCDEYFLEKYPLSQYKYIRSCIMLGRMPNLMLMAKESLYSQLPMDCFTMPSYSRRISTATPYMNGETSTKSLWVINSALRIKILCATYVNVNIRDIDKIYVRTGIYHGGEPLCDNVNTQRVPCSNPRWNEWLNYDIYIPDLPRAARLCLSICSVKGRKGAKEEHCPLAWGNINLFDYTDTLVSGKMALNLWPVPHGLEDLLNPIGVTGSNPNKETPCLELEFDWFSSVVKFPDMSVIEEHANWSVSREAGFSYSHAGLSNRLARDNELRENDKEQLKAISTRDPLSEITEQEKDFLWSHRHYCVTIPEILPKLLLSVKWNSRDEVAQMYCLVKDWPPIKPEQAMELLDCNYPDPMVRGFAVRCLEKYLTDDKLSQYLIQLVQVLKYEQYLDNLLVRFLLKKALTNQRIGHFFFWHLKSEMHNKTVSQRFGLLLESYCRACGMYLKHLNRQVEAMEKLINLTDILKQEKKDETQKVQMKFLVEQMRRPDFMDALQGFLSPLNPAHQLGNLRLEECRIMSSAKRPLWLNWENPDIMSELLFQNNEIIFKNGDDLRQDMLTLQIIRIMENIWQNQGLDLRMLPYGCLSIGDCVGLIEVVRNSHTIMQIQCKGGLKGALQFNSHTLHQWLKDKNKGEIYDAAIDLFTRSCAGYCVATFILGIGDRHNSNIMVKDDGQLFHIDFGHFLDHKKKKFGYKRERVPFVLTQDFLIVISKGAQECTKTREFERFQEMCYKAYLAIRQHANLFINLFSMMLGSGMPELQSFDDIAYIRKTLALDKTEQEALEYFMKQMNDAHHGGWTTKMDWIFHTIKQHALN
T2 sequence (P27986 whole entry partner): as the sequence (P27986 whole entry partner) above

| SMILES | IC50 [1] | IC50 [2] | IC50 [3] | IC50 [4] | IC50 [5] |
| --- | --- | --- | --- | --- | --- |
| Nc1nc2cc(-c3ccc4ncc(N5C6CCC5COC6)nc4n3)ccc2o1 [Compound 19] | > 10000 nM | < 100 nM | > 10000 nM | > 10000 nM | < 100 nM |
| CN1CC2CN(c3cnc4ccc(-c5ccc6oc(N)nc6c5)nc4n3)CC2C1 (stereo not drawn) [Compound 78] | > 10000 nM | < 100 nM | < 1000 nM | < 1000 nM | < 10000 nM |
| CN1CC2CN(c3cnc4ccc(-c5ccc6oc(N)nc6c5)nc4c3)CC2C1 (stereo not drawn) [Compound 79] | > 10000 nM | < 100 nM | < 1000 nM | < 1000 nM | < 1000 nM |
